Legend:
[1] = Nitrapyrin volatilization: weight loss on a heated balance at 100° C.; format: physicochemical; settings: for weight as a percent of original weight: heated balance 100° C.; for nitrapyrin sulfolane volatility ratio: nitrapyrin without solvent vs. solvent alone
Description: Three materials were placed on a heated balance at […] and had their weights observed every minute for 10 minutes, as a percent of original weight. The materials were: • 1. pure nitrapyrin, • 2. 25% w/w solution of nitrapyrin in sulfolane, and • 3. solution of 25% nitrapyrin salt with equimolar (on acid basis) amount of maleic-itaconic copolymer, also in sulfolane (nitrapyrin/polyanionic polymer salt).
Therefore, the disclosed nitrapyrin-organic acid ionic mixtures substantially reduce the volatilization of nitrapyrin.
Tests were run to determine the relative volatility of the nitrapyrin solution without polyanionic polymer.

[2] = Formation of solutions of nitrapyrin salts at 20% w/w nitrapyrin and grading of solutions; format: physicochemical; set-up: key: 5: Fully dissolved; 4: Mostly dissolved; 3: Mostly not dissolved; 2: Not dissolved; 1: Additional precipitate
Text: Example 2. Formation of Solutions of Nitrapyrin Salts and Grading of Solutions

[3] = solvent A dipropylene glycol, 20% w/w nitrapyrin
[4] = solvent B PT700, 20% w/w nitrapyrin
[5] = solvent C PT250, 20% w/w nitrapyrin
[6] = solvent D triethylene glycol, 20% w/w nitrapyrin
[7] = solvent E tripropylene glycol, 20% w/w nitrapyrin
[8] = solvent F propylene carbonate, 20% w/w nitrapyrin
[9] = solvent G triacetin, 20% w/w nitrapyrin
[10] = solvent H Agnique AMD810, 20% w/w nitrapyrin
[11] = solvent I Agnique AMD3L, 20% w/w nitrapyrin
[12] = solvent J Rhodiasolv ADMA10, 20% w/w nitrapyrin
[13] = solvent K Rhodiasolv ADMA810, 20% w/w nitrapyrin
[14] = solvent L Rhodiasolv PolarClean, 20% w/w nitrapyrin

Row | Compound | grade of solution [2, 3] | grade of solution [2, 4] | grade of solution [2, 5] | grade of solution [2, 6] | grade of solution [2, 7] | grade of solution [2, 8] | grade of solution [2, 9] | grade of solution [2, 10] | grade of solution [2, 11] | grade of solution [2, 12] | grade of solution [2, 13] | grade of solution [2, 14] | other results
1 | Clc1cccc(C(Cl)(Cl)Cl)n1 [nitrapyrin without solvent, nitrapyrin] |  |  |  |  |  |  |  |  |  |  |  |  | weight as a percent of original weight ([1]; experiment time 0 min): 100.00%; weight as a percent of original weight ([1]; experiment time 1 min): 99.20%; weight as a percent of original weight ([1]; experiment time 2 min): 98.56%; weight as a percent of original weight ([1]; experiment time 3 min): 97.92%; weight as a percent of original weight ([1]; experiment time 4 min): 96.00%; weight as a percent of original weight ([1]; experiment time 5 min): 94.87%; weight as a percent of original weight ([1]; experiment time 6 min): 93.75%; weight as a percent of original weight ([1]; experiment time 7 min): 92.63%; weight as a percent of original weight ([1]; experiment time 8 min): 90.87%; weight as a percent of original weight ([1]; experiment time 9 min): 89.90%; weight as a percent of original weight ([1]; experiment time 10 min): 89.10%; nitrapyrin sulfolane volatility ratio ([1]; Delta 3-10): 401%; nitrapyrin sulfolane volatility ratio ([1]; Delta 4-10): 392%; nitrapyrin sulfolane volatility ratio ([1]; Delta 5-10): 393%
2 | O=C(O)CCC(=O)O [succinic] | 3 | 4 | 1 | 2 | 3 | 3 | 2 | 5 | 5 | 5 | 5 | 5 | 
3 | O=C(O)C(O)C(O)C(=O)O (centres unmarked) [tartaric] | 2 | 2 | 1 | 1 | 2 | 2 | 2 | 5 | 5 | 5 | 5 | 5 | 
4 | adipic | 2 | 3 | 1 | 3 | 4 | 3 | 3 | 5 | 5 | 5 | 5 | 5 | 
5 | malic | 2 | 4 | 1 | 2 | 2 | 3 | 3 | 5 | 5 | 5 | 5 | 5 | 

From US20240389589A1, “CORROSION INHIBITORS FOR NITROGEN INHIBITOR FORMULATION” (Verdesian Life Sciences U.S., LLC, priority 2021, published 2024)
